Reference: patent publication US7468439B2, “Alkylene bridged sultam compounds useful as modulators of nuclear hormone receptor function” (Bristol-Myers Squibb Company, priority 2006, dated 2008)

Assays:
[1] = stability of the isolated material on storage; assay type: physicochemical
[2] = serum T and DHT concentrations after subcutaneous injection; conditions: over 24 hours
wild type AR = conditions: read-out: Kd for [^3H]-DHT; MDA 453 cells (wild type AR), saturation analysis, Scatchard
Procedure: For the saturation analysis, the difference between the total binding and the non-specific binding, is defined as specific binding.
Two replicates are used for each sample. After 4 hours at 37° C., cells are washed, harvested, and counted as described above. […] The K1 values are determined by application of the Cheng-Prusoff equation to the IC50 values, where:
[formula] After correcting for non-specific binding, IC50 values are determined. […] Murine Breast Cell Proliferation Assay

AR = molecular target: T1, AR (Rattus norvegicus, UniProt P15207)
T1 sequence (P15207 1-902): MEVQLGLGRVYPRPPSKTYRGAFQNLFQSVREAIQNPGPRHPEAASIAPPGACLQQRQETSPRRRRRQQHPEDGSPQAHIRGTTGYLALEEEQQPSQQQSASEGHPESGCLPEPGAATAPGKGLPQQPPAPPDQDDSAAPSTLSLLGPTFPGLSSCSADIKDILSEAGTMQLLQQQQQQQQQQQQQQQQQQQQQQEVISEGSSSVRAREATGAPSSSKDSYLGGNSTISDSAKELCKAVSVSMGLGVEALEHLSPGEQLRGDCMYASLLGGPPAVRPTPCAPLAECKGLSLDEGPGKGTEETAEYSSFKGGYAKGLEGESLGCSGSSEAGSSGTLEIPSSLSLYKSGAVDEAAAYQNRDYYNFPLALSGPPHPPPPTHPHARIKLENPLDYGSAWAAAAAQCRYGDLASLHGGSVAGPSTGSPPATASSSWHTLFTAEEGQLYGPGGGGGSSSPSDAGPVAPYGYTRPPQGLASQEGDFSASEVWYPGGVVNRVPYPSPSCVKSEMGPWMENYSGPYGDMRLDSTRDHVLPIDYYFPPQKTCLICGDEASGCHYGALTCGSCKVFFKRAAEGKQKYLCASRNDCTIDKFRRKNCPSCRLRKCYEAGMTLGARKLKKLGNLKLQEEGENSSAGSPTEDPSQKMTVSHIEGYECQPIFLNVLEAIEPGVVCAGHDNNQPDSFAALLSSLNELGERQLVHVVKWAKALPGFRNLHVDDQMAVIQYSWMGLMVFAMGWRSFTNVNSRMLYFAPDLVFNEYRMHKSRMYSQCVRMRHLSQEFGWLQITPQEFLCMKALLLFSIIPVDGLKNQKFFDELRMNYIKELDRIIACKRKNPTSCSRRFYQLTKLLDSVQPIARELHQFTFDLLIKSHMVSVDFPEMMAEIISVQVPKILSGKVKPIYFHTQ

## N#Cc1ccc(N2C[C@H]3[C@H]4CC[C@H](C4)[C@@]3(CN=[N+]=[N-])S2(=O)=O)cc1C(F)(F)F [Example 65, 4-((1R,2R,6R,7S)-2-(azidomethyl)-3,3-dioxido-3-thia-4-azatricyclo[5.2.1.0^2,6]dec-4-yl)-2-(trifluoromethyl)benzonitrile]
[1]; ambient conditions
  stability: prone to decomposition under ambient conditions

## C[C@]12CC[C@H]3[C@@H](CCC4=CC(=O)CC[C@@]43C)[C@@H]1CC[C@@H]2O [T, testosterone]
[2]
  course of serum concentrations of T and DHT: decline very rapidly

## tritiated dihydrotestosterone [[^3H]-DHT]
Wild type AR
  Kd: 0.7 nM

## CCC(=O)O[C@H]1CC[C@H]2[C@@H]3CCC4=CC(=O)CC[C@]4(C)[C@H]3CC[C@]12C [TP, testosterone propionate]
AR; higher potency than free T
  potency relative to free T: 10-30 fold
AR; immature castrated rat model, weights of VP and SV
  ED80: 0.1 mg
AR; immature castrated rats, dosing for 3 days
  EC50 (increase in organ weight, VP and SV): ~0.03 mg

## N#Cc1ccc(N2C[C@H]3[C@H]4CC[C@H](C4)[C@@]3(COS(=O)(=O)C(F)(F)F)S2(=O)=O)cc1C(F)(F)F [Example 61, ((1R,2R,6R,7S)-4-(4-cyano-3-(trifluoromethyl)phenyl)-3,3-dioxido-3-thia-4-azatricyclo[5.2.1.0^2,6]dec-2-yl)methyl trifluoromethanesulfonate]
[1]; under an inert atmosphere, unpurified material
  stability: stable for several weeks under an inert atmosphere
